Series [1] is described as follows: Selectivity index, ratio of CC50 for cytotoxicity against human A549 cells to EC50 for antiviral activity against pseudotyped EBOV Mayinga infected in human A549 cells assessed as inhibition of Pseudoviral entry. The format is toxicity, cell-based. To be noted: read-out: Ratio CC50/EC50.
Series [2] is described as follows: Selectivity index, ratio of CC50 for cytotoxicity against human A549 cells to EC50 for antiviral activity against pseudotyped Marburgvirus Angola infected in human A549 cells assessed as inhibition of Pseudoviral entry. To be noted: read-out: Ratio CC50/EC50. The format is toxicity, cell-based.
The test system of the next series is Ebolavirus. As to the kind of experiment: Antiviral activity against pseudotyped EBOV Mayinga infected in human A549 cells assessed as inhibition of Pseudoviral entry incubated for 40 hrs. The format is functional, organism-based. To be noted: Orthoebolavirus, A549, 40 h.
The subject of a further series is Marburgvirus. The experiment in a line: Antiviral activity against pseudotyped Marburgvirus Angola infected in human A549 cells assessed as inhibition of Pseudoviral entry incubated for 40 hrs. The format is functional, organism-based. To be noted: Orthomarburgvirus, A549, 40 h.
For a further series, the system named is Sudan ebolavirus. The experiment in a line: Antiviral activity against pseudotyped Sudan ebolavirus Gulu infected in human A549 cells assessed as inhibition of viral growth. The format is functional, organism-based.
Another series relates to Tai Forest ebolavirus. The experiment in a line: Antiviral activity against pseudotyped Tai Forest ebolavirus infected in human A549 cells assessed as inhibition of viral growth. The format is functional, organism-based.
The next series concerns A549. As to the kind of experiment: Cytotoxicity against human A549 cells assessed as as reduction in cell viability incubated for 48 hrs by celltiter-glo assay. The format is functional.

For orientation: EC50 means the concentration at which the effect is half-maximal. Usually CC50 stands for the concentration giving 50% cytotoxicity.

Some results are limits rather than exact numbers.

In the case of `CCN(CC)CCNC(=O)c1cc2occc2n1Cc1ccc(Cl)cc1`, the selectivity ratio in series [1] was determined as 38; in series [2], 17. Besides, the concentration giving a half-maximal response (EC50) in the series with Ebolavirus was 1.61 µM; with Marburgvirus it was 3.67 µM.

On to `CN(C)C1CCN(C(=O)c2cc3ccccc3n2Cc2ccc(Cl)cc2)CC1`, for which the values for the selectivity ratio in series [1] and in series [2] were 44 and less than 1, respectively. Moreover, the concentration giving a half-maximal response (EC50) with Sudan ebolavirus stood at 0.884 µM; with Tai Forest ebolavirus, 4.95 µM; with Ebolavirus it was 1.38 µM; in the series with Marburgvirus, 6.83 µM.

As to `CN(C)C1CCN(C(=O)c2cc3ccccc3n2C)CC1`, the selectivity ratio is more than 6.1 in series [1] and less than 1 in series [2]. In addition, the EC50 with Ebolavirus was 16.5 µM; in the series with Marburgvirus, more than 100 µM.

`CN(C)C1CCN(C(=O)c2cc3ccccc3n2Cc2ccc(-c3ccccc3)cc2)CC1`: the selectivity ratio in series [1] was 14; in series [2], 7.2. For the same compound, the EC50 came to 1.06 µM with Ebolavirus and 1.99 µM in the series with Marburgvirus.

As for `CN1CCN(CCCNC(=O)c2cc3occc3n2Cc2ccc(Cl)cc2)CC1`, the selectivity ratio in series [1] is 42; in series [2], 10. For the same compound, the 50% effective concentration (EC50) in the series with Ebolavirus was determined as 1.86 µM; with Marburgvirus, 7.7 µM.

As for `CN(C)CCNC(=O)c1cn(Cc2ccccc2)c2ccccc12`, the selectivity ratio stood at 21 in series [1] and 6.1 in series [2]. Further, the half-maximal effective concentration (EC50) in the series with Ebolavirus was determined as 3.28 µM; with Marburgvirus, 11.1 µM.

As to `CN(C)C1CCN(C(=O)c2cccn2Cc2ccccc2)CC1`, the values for the selectivity ratio in series [1] and in series [2] were 90 and 5.6, respectively. For the same compound, the EC50 in the series with Ebolavirus worked out at 1.11 µM; in the series on Marburgvirus it was 17.8 µM.

On to `CN1CCN(C(=O)c2cc3sccc3n2Cc2ccc(Cl)cc2)CC1`, for which the selectivity ratio turned out to be 10 in series [1] and 4.1 in series [2]. Also, the EC50 was 9.75 µM in the series on Ebolavirus and 24.7 µM in the series with Marburgvirus.

As for `O=C(Nc1ccc(N2CCOCC2)cc1)c1cc2occc2n1Cc1ccc(Cl)cc1`, the selectivity ratio in series [1] and in series [2] was 1 each time. Further, the EC50 in the series on Ebolavirus and in the series on Marburgvirus was more than 100 µM each time. Further, the CC50 in the series on A549 is more than 100 µM.

With `CN(C)C1CCN(C(=O)CN(Cc2ccccc2)c2ccccc2)CC1`, the selectivity ratio is 9.4 in series [1] and less than 1 in series [2]. The EC50 is 10.7 µM with Ebolavirus and more than 100 µM with Marburgvirus.

`CN(C)CCNC(=O)c1cc2occc2n1Cc1ccccc1`: the selectivity ratio came to 22 in series [1] and 3.9 in series [2]. Further, the EC50 worked out at 4.51 µM with Ebolavirus and 25.6 µM in the series on Marburgvirus.

For `CN1CCCN(C(=O)c2cc3occc3n2Cc2ccc(Cl)cc2)CC1`, the results for the selectivity ratio in series [1] and in series [2] were 71 and 9.6, respectively. The 50% effective concentration (EC50) in the series with Ebolavirus came to 1.41 µM; in the series on Marburgvirus, 10.5 µM.

On to `CN(C)CCNC(=O)c1cc2occc2n1C`, for which the selectivity ratio in series [1] and in series [2] was 1 throughout. The EC50 in the series on Ebolavirus and in the series with Marburgvirus was more than 100 µM throughout.

Consider `CN1CCCN(C(=O)c2cc3occc3n2Cc2cccc(C(F)(F)F)c2)CC1`, for which the results for the selectivity ratio in series [1] and in series [2] were 40 and 8.1, respectively. In addition, the concentration giving a half-maximal response (EC50) with Ebolavirus amounted to 1.73 µM; in the series on Marburgvirus it was 8.64 µM.

In the case of `CN(C)C1CCN(C(=O)c2cc3occc3n2C(=O)OCc2ccccc2)CC1`, the results for the selectivity ratio in series [1] and in series [2] were more than 60 and more than 3.4, respectively. Also, the values for the EC50 with Ebolavirus and with Marburgvirus were 1.68 µM and 29.8 µM, respectively.

With `CC(C)N1CCN(C(=O)c2cc3occc3n2Cc2cccc(C(F)(F)F)c2)CC1`, the values for the selectivity ratio in series [1] and in series [2] were 29 and 4.4, respectively. Also, the half-maximal effective concentration (EC50) in the series with Ebolavirus stood at 3.43 µM; in the series on Marburgvirus it was 22.2 µM.

`CC1CCN(c2ccc(NC(=O)c3cc4occc4n3Cc3ccc(Cl)cc3)cc2C(F)(F)F)CC1`: the values for the selectivity ratio in series [1] and in series [2] were 25 and 7.4, respectively. Further, the figures for the half-maximal effective concentration (EC50) in the series with Ebolavirus and in the series with Marburgvirus were 4.03 µM and 13.6 µM, respectively. The CC50 in the series with A549 was more than 100 µM.

For `O=C(NCCCn1ccnc1)c1cc2occc2n1Cc1ccc(Cl)cc1`, the selectivity ratio is 16 in series [1] and 7.6 in series [2]. Further, the EC50 with Ebolavirus was 6.24 µM; in the series on Marburgvirus, 13.2 µM.

As for `CN(C)CCNC(=O)c1cc2ccccc2n1Cc1ccccc1`, the selectivity ratio in series [1] is 24; in series [2], 9.5. In addition, the EC50 in the series with Ebolavirus is 2.74 µM; with Marburgvirus, 6.8 µM.

Regarding `CCOc1ncc(NC(=O)c2cc3occc3n2Cc2ccc(Cl)cc2)cc1F`, the selectivity ratio came out at 41 in series [1] and 1 in series [2]. The EC50 was 2.43 µM in the series with Ebolavirus and more than 100 µM in the series with Marburgvirus. Besides, the cytotoxic concentration (CC50) in the series with A549 is more than 100 µM.

Turning to `CN(C)CCNC(=O)c1cn(Cc2ccc(F)cc2)c2ccccc12`, the selectivity ratio in series [1] came out at 21; in series [2] it was 8.9. Besides, the concentration giving a half-maximal response (EC50) in the series on Ebolavirus amounted to 3 µM; with Marburgvirus, 6.47 µM.

In the case of `CN(C)C1CCN(C(=O)c2cc3occc3n2Cc2ccc(F)cc2)CC1`, the selectivity ratio in series [1] is more than 25; in series [2], more than 8.8. Moreover, the 50% effective concentration (EC50) with Ebolavirus came to 3.93 µM; in the series with Marburgvirus, 11.4 µM.

Regarding `CN(C)CCNC(=O)c1cc2occc2n1Cc1ccc(F)cc1`, the selectivity ratio in series [1] was more than 38; in series [2], more than 93. Also, the concentration for a half-maximal effect (EC50) in the series on Ebolavirus worked out at 2.62 µM; in the series with Marburgvirus it was 10.8 µM.

`O=C(c1cc2sccc2n1Cc1ccc(Cl)cc1)N1CCN(C2CCCCC2)CC1`: the selectivity ratio was determined as 4.9 in series [1] and 3.8 in series [2]. For the same compound, the EC50 in the series on Ebolavirus came out at 10.9 µM; in the series on Marburgvirus it was 13.9 µM.

With `CN(C)C1CCN(C(=O)c2cc3ccccc3n2Cc2ccncc2)CC1`, the values for the selectivity ratio in series [1] and in series [2] were more than 6.2 and 27, respectively. The EC50 stood at 162 µM in the series with Ebolavirus and 3.78 µM in the series on Marburgvirus.

On to `O=C(c1cc2ccccc2n1Cc1ccccc1)N1CCCCC1`, for which the selectivity ratio in series [1] and in series [2] was 11 each time. Further, the EC50 in the series with Ebolavirus is 9.11 µM; with Marburgvirus it was more than 100 µM.

Consider `CN(C)CCNC(=O)c1cc2ccccc2n1Cc1ccc(-c2ccccc2)cc1`, for which the selectivity ratio is 5.9 in series [1] and 14 in series [2]. The results for the concentration giving a half-maximal response (EC50) with Ebolavirus and in the series with Marburgvirus were 2.77 µM and 3.1 µM, respectively.

Take `CN(C)CCCNC(=O)c1cc2occc2n1Cc1ccc(Cl)cc1`: the selectivity ratio worked out at 36 in series [1] and 13 in series [2]. Moreover, the EC50 in the series with Ebolavirus was found to be 2.01 µM; with Marburgvirus, 5.52 µM.

In the case of `CN(C)C1CCN(C(=O)c2cc3occc3n2Cc2cccc(C(F)(F)F)c2)CC1`, the selectivity ratio is 67 in series [1] and 10 in series [2]. The concentration for a half-maximal effect (EC50) in the series with Ebolavirus came out at 1.5 µM; with Marburgvirus it was 9.72 µM. Further, the CC50 in the series on A549 is approximately 100 µM.

Consider `CN(C)C1CCN(C(=O)c2cc3ccccc3n2Cc2cccnc2)CC1`, for which the selectivity ratio in series [1] is more than 19; in series [2] it was 2.6. Also, the EC50 in the series with Ebolavirus was 5.3 µM; with Marburgvirus, 38.6 µM.

Turning to `O=C(NCCCn1ccnc1)c1cc2occc2n1Cc1cccc(C(F)(F)F)c1`, the selectivity ratio in series [1] is 13; in series [2], 5.9. For the same compound, the 50% effective concentration (EC50) turned out to be 4.32 µM with Ebolavirus and 9.78 µM in the series with Marburgvirus.

Consider `O=C(NCCN1CCC1)c1cc2occc2n1Cc1cccc(C(F)(F)F)c1`, for which the selectivity ratio in series [1] was 20; in series [2], 6.2. The EC50 is 1.94 µM in the series on Ebolavirus and 6.22 µM in the series on Marburgvirus.

With `CN(C)CCNC(=O)c1cc2occc2n1Cc1ccc(Cl)c(C(F)(F)F)c1`, the selectivity ratio in series [1] worked out at 17; in series [2], 10. The concentration for a half-maximal effect (EC50) in the series on Ebolavirus came out at 1.9 µM; with Marburgvirus, 3.16 µM.

For `CN(C)CCNC(=O)c1cc2ccccc2n1Cc1ccc(F)cc1`, the results for the selectivity ratio in series [1] and in series [2] were 16 and 8.9, respectively. Further, the 50% effective concentration (EC50) amounted to 3.39 µM in the series on Ebolavirus and 4.21 µM in the series with Marburgvirus.

Take `CC(C)N1CCN(C(=O)c2cc3sccc3n2Cc2ccc(Cl)cc2)CC1`: the selectivity ratio came to 17 in series [1] and 3.1 in series [2]. Also, the EC50 in the series with Ebolavirus was found to be 5.84 µM; in the series with Marburgvirus, 32.8 µM.

Take `CN1CCCN(C(=O)c2cc3sccc3n2Cc2ccc(Cl)cc2)CC1`: the selectivity ratio in series [1] was determined as 24; in series [2], 9.3. For the same compound, the concentration giving a half-maximal response (EC50) in the series on Ebolavirus was 4.16 µM; in the series on Marburgvirus it was 10.8 µM.

`CN(C)C1CCN(C(=O)c2cn(Cc3ccc(F)cc3)c3ccccc23)CC1`: the selectivity ratio is 30 in series [1] and 6.9 in series [2]. In addition, the EC50 in the series with Ebolavirus is 2.54 µM; with Marburgvirus it was 10.9 µM.

Consider `CN(C)CCNC(=O)c1cc2occc2n1C(=O)OCc1ccccc1`, for which the selectivity ratio in series [1] was more than 12; in series [2], more than 3.1. The results for the concentration for a half-maximal effect (EC50) in the series on Ebolavirus and with Marburgvirus were 8.11 µM and 31.1 µM, respectively.

For the compound `CN(C)CCNC(=O)c1cc2occc2n1Cc1cccc(C(F)(F)F)c1`, the selectivity ratio was found to be 32 in series [1] and 13 in series [2]. The EC50 in the series with Ebolavirus came to 1.68 µM; with Marburgvirus, 4.29 µM.

For the compound `CN(C)CCNC(=O)c1cc2sccc2n1Cc1ccc(Cl)cc1`, the selectivity ratio in series [1] came out at 19; in series [2], 13. In addition, the figures for the EC50 in the series with Ebolavirus and in the series with Marburgvirus were 2.17 µM and 3.14 µM, respectively.

As to `CN(C)CC1CN(C(=O)c2cc3occc3n2Cc2ccc(Cl)cc2)C1`, the selectivity ratio stood at 46 in series [1] and 12 in series [2]. Further, the EC50 was found to be 1.23 µM with Ebolavirus and 4.57 µM in the series on Marburgvirus.

(Values after ChEMBL document CHEMBL5576160, “N-Substituted Pyrrole-Based Heterocycles as Broad-Spectrum Filoviral Entry Inhibitors” (J Med Chem, 2024).)
